According to patent US8986696B2, “Trans-capsular administration of p38 map kinase inhibitors into orthopedic joints” (DePuy Mitek, Inc., priority 2007, dated 2015):

How the values were obtained:
[1] = test system: injured cartilage explants, NO production; experiment: drop tower design model: NO production; format: cell-based, bovine; details: cocktail of cytokines
Excerpt: The device comprises a vertical rail that guides a sliding weight from 0.1 kg to 3 kg directly onto a force transducer which is situated at the bottom of the device. A sphere-shaped 2 mm indenter resting on a specimen is located at the bottom of the vertical rail. The indenter is held by a stop screw. The specimen is rigidly attached to a tissue holder underneath the indenter, to avoid side movements, the specimen is rigidly attached to the tissue holder. In this manner, the force transducer transduces a force indirectly onto the specimen. Adjusting the weight of a mass and height from which the mass drops varies the magnitude of the intended impact. […]
In the first method, bovine or human PBMCs were freshly prepared using Ficoll gradient by Lampire Biological Laboratories, Inc. PBMCs in RPMI w/10% FCS at delivery were spun down at 1500 rpm for twenty minutes and the cell pellet was washed twice with 1×PBS to wash off the residual Ficoll. […] Each conditioned medium was assessed for levels of pro-inflammatory cytokines to ensure their secretion from PBMC. […]
Nitrate/Nitrite was measured using the Griess reaction (Green L. C. et al., “Analysis of Nitrate, Nitrite, and [15N]nitrate in Biological Fluids,” Anal. Biochem. 126: 131-138 (1982)) with a Nitrate/Nitrite Colorimetric Assay Kit (Cayman Chemicals), as described in Example III above.

[2] = test system: JNK; experiment: JNK inhibition; format: biochemical

Structure (SMILES)	NO production, inhibition [1]	IC50 [2]
OCCC#Cc1nc(-c2ccc(F)cc2)c(-c2ccncc2)n1CCCc1ccccc1 [JNJ 3026582 (RWJ 67657), 4-[4-(4-fluorophenyl)-1-(3-phenylpropyl)-5-(4-pyridinyl)-1H-imidazol-2-yl]-3-butyn-1-ol]	dose-dependently inhibited	–
C[C@H](Nc1nccc(-c2c(-c3ccc(F)cc3)nc3nc(N)ccn23)n1)c1ccccc1 [JNJ 7583979 (RWJ 351958)]	–	12 nM
